Read-outs that look alike come from different tables or passages of the source.
Key:
HSV-1 (McIntyre Strain) = assay: HSV-1 replication in human foreskin fibroblasts (virus titre); assay type: cell-based, Herpes Simplex virus; conditions: for Virus titre: human fibroblasts; for Reduction factor: virus titre vs untreated
Description: FIG. 1A relates to the concentration of S-acetyl glutathione of 20 mM, and FIG. 1B to the concentration of 10 mM. […] With the evaluation model used, a combination index of less than 1 signifies a synergistic effect, a combination index equal to 1 an additive effect, and a combination index of greater than 1 an antagonistic effect.

VZV (Strain 4400/95) = conditions: RPE cells
[1] = S-acetyl glutathione 10 mM alone
[2] = S-acetyl glutathione 20 mM alone

Compound | Virus titre (HSV-1 (McIntyre Strain); [1]) | Reduction factor (HSV-1 (McIntyre Strain); [1]) | Virus titre (HSV-1 (McIntyre Strain); [2]) | Reduction factor (HSV-1 (McIntyre Strain); [2]) | Concentration from which effective against HSV-1 (HSV-1 (McIntyre Strain); S-acetyl glutathione alone) | Plaque number (VZV (Strain 4400/95); [1]) | Plaque number (VZV (Strain 4400/95); [2]) | Virus titre (HSV-1 (McIntyre Strain); ACV 0.5 μM alone) | Reduction factor (HSV-1 (McIntyre Strain); ACV 0.5 μM alone) | Virus titre (HSV-1 (McIntyre Strain); ACV 1 μM alone) | Reduction factor (HSV-1 (McIntyre Strain); ACV 1 μM alone) | Virus titre (HSV-1 (McIntyre Strain); ACV 2 μM alone) | Reduction factor (HSV-1 (McIntyre Strain); ACV 2 μM alone) | Effectiveness against HSV-1 (HSV-1 (McIntyre Strain); ACV alone, especially in the concentration of 2 μM)
CC(=O)SC[C@H](NC(=O)CC[C@H](N)C(=O)O)C(=O)NCC(=O)O [S-acetyl glutathione] | 1.5 × 10^6 TCID60/ml | 14 | 2.4 × 10^5 TCID60/ml | 91 | ≥ 10 mM | 59% | 52% |  |  |  |  |  |  | 
Nc1nc2c(ncn2COCCO)c(=O)[nH]1 [ACV, 9-[(2-hydroxyethoxy)methyl)guanine] |  |  |  |  |  |  |  | 3.1 × 10^6 TCID60/ml | 6.8 | 3.3 × 10^5 TCID60/ml | 64 | 3.8 × 10^3 TCID60/ml | 5526 | clear effectiveness

Reference: US6448227B1, “Therapeutically effective substance mixture” (priority 1999, dated 2002)
